According to patent US8143260B2, “Tricyclic amine compound” (Research Foundation Itsuu Laboratory, priority 2007, dated 2012):
Values joined by “and” are separate entries in the source; they are usually repeats but may differ in a detail not shown here. Equal values may be shown once.

Tested on: human acute promyelocytic leukemia cell strain HL-60
Test: Differentiation induction of HL-60 cells (NBT-reducing ability); enhancement of the retinoid action of Am80
Assay type: cell-based
Conditions: for Differentiation induction ratio (%), Am80 1 nM + Test compound: four days; for Differentiation induction ratio (%), Test compound alone: test compound alone 100 nM
Procedure: Cells of human acute promyelocytic leukemia cell strain HL-60 were cultured in a CO2 incubator (5% CO2, 37° C.) using the RPMI medium containing 5% FBS. Differentiation inducing action on the HL-60 cells induced by 4-[(5,6,7,8-tetrahydro-5,5,8,8-tetramethyl-2-naphthalenyl)carbamoyl]benzoic acid (Am80) was evaluated on the basis of ability to reduce nitroblue tetrazolium (NBT) determined by observing differentiation from promyelocytic cells into granulocytic cells as an index. The cells that entered into the logarithmic phase and reached a substantially confluent state were centrifuged at 1000 rpm for 5 minutes, and the culture supernatant was removed. The cell pellet was suspended in fresh RPMI medium containing 5% FBS at a density of 8.0×10^4 cells/ml, then the suspension was added with a test compound dissolved in DMSO at an intended concentration, and the cells were cultured for four days and then used for the experiment. The samples were prepared so as to have the same DMSO concentration.
Cell count of the cells after the culture for a predetermined period was determined by a cell counting method using a blood cell counting chamber. The NBT-reducing ability was obtained as follows. NBT was dissolved in phosphate buffered saline (PBS(−)) at a concentration of 0.2%, and the solution was added with an equivalent volume of the RPMI medium containing 5% FBS. The mixture was added with phorbol 12-myristate 13-acetate (tPA) at a concentration of 0.2 μM (about 200 ng) to prepare a reagent solution. The collected cells were centrifuged at 1000 rpm for 5 minutes, the supernatant was removed, and the remained cell pellet was added with the reagent solution. The mixture was incubated on a water bath at 37° C. for 20 minutes, and then NBT-reduced stained positive cells were counted by using the counting chamber to calculate a differentiation induction ratio. The same test was performed with allowing the compounds of the present invention prepared in the aforementioned examples (all were carboxylic acid compounds) to coexist with Am80 to confirm action of the compounds of the present invention for enhancing the retinoid action of Am80. As a compound having a retinoid action enhancing action (positive control), 4-[2,3-(2,5-dimethyl-2,5-hexano)dibenzo[b,f][1,4]thiazepin-11-yl]benzoic acid (HX630, Japanese Patent Unexamined Publication No. 10-59951) was used.

[1] = Am80 1 nM + test compound 1 × 10^−7M
[2] = Am80 1 nM + test compound 1 × 10^−8M
[3] = Am80 1 nM + test compound 1 × 10^−9M
[4] = cultured four days, NBT-positive cells

| SMILES | Differentiation induction ratio (%), Am80 1 nM + Test compound [1] [%] | Differentiation induction ratio (%), Am80 1 nM + Test compound [2] [%] | Differentiation induction ratio (%), Am80 1 nM + Test compound [3] [%] | Differentiation induction ratio (%), Test compound alone [4] [%] | Differentiation induction ratio (%), Am80 alone (Am80 alone 1 nM, cultured four days, NBT-positive cells) |
| --- | --- | --- | --- | --- | --- |
| O=C(O)c1ccc(N(CC2CC2)c2cc3c4c(c2)CCCCC4CCCC3)cc1 [Example 20, 4-[N-Cyclopropylmethyl-(5,6,7,7a,8,9,10,11-octahydro-4H-2-benzo[ef]heptalenyl)amino]benzoic acid] | 89.8 | 54.8 | 35.2 | 1.4 | – |
| CC1(C)CCC(C)(C)c2cc3c(cc21)Sc1ccccc1N=C3c1ccc(C(=O)O)cc1 [HX630, 4-[2,3-(2,5-dimethyl-2,5-hexano)dibenzo[b,f][1,4]thiazepin-11-yl]benzoic acid, reference compound] | 72.3 | 27.8 | 20.4 | 1.6 | – |
| CCN(c1ccc(C(=O)O)cc1)c1cc2c3c(c1)CCCC3CCC2 [Example 3, 4-[N-Ethyl-(5,6,6a,7,8,9-hexahydro-4H-2-phenalenyl)amino]benzoic acid] | 25.8 | 26.4 | 20.5 | 1.5 | – |
| O=C(O)c1ccc(N(CC2CC2)c2cc3c4c(c2)CCCC4CCC3)cc1 [Example 4, 4-[N-Cyclopropylmethyl-(5,6,6a,7,8,9-hexahydro-4H-2-phenalenyl)amino]benzoic acid] | 82.9 | 37.5 | 23.9 | 1.9 | – |
| CCN(c1ccc(C(=O)O)cc1)c1cc2c3c(c1)CCCCC3CCCC2 [Example 19, 4-[N-Ethyl-(5,6,7,7a,8,9,10,11-octahydro-4H-2-benzo[ef]heptalenyl)amino]benzoic acid] | 85.4 | 44.6 | 31.8 | 2.2 | – |
| CC1(C)CCC(C)(C)c2cc(NC(=O)c3ccc(C(=O)O)cc3)ccc21 [Am80, 4-[(5,6,7,8-tetrahydro-5,5,8,8-tetramethyl-2-naphthalenyl)carbamoyl]benzoic acid, reference compound] | – | – | – | – | 16.9% and 15.9% |
